Data: patent US6541503B2, “Substituted oxindole derivatives as protein tyrosine kinase and as protein serine/threonine kinase inhibitors” (SmithKline Beecham Corporation, priority 1997, dated 2003)
Where two headings read alike, the source gives them in different places.

Columns and labels:
CDK2 = CDK2 (Homo sapiens, UniProt P24941); assay: Cyclin dependent protein kinase substrate phosphorylation assay, CDK2; format: biochemical
Method: CDK1 and CDK2 were both expressed utilizing a baculovirus expression system and were partially purified to comprise 20-80% of total protein, with no detectable competing reactions present. […] Reactions were terminated with 0.2-2 volumes of either 20% acetic acid or 50-100 mM EDTA buffered to pH 7 (substrate consumption<20%). The buffer employed in enzyme assays was either 30 mM HEPES 7.4 containing 0.15 M NaCl and 5% DMSO, the buffer 50 mM MOPS 7.0 containing 0.15 M NaCl and 5% DMSO, or the buffer 100 mM HEPES pH 7.5 containing 0.1 mg /mL BSA and 5% DMSO. Inhibitors were diluted in 100% DMSO prior to addition into the assay. Detection of peptide phosphorylation was accomplished by scintillation counting following either collection of peptide onto phosphocellulose filters (for reactions stopped with acetic acid), collection of peptide in wells of 96 well plates coated with Streptavidin (Pierce) (reactions were stopped with EDTA), or addition of Avidin coated Scintillant impregnated beads (Scintillation Proximity Assays from Amersham, reactions were stopped with EDTA).

[1] = tested on: MES/SA ovarian carcinoma cells; assay: FACS assay (cell death by flow cytometry), MES/SA; format: cell-based; details: Homo sapiens, MES-SA, 72 h, read-out: FACS MES/SA IC50
Method: (§1) These assays allow determination of both cell death and changes in cell cycle profile in cells following treatment of the compound. The assay is performend as follows:
(§2) 1. Cells are incubated in DMEM to which 10% FCS has been added in a humidified incubator at 37° C. and 5% by volume of CO2 in air. The cells are innoculated in 6-well plates at a density of 0.5-5×10^5 cells per well.
(§3) 2. The test compound is added in serial dilutions 24-36 h after plating in 0.5% DMSO. The plates are then incubated a further 72 h in the presence of the compound. During this time, cells in control cultures undergo at least three cell divisions.
(§4) 3. After incubation, the media is collected and cells are harvested by trypsinization. The cells and media are pooled and pelleted by centrifugation.
(§5) 4. The cell pellet is fixed in a final volume of 3 mL of 50% ice cold MeOH and incubated for a minimum of 30 min at −20° C.
(§6) 5. The cells are pelleted by centrifugation and resuspended in 0.5 mL PBS containing 1%FCS, […] Propidium Iodide (PI) and 5 mg/mL RNase A and incubated 30 min at 37° C. in the dark.
(§7) 6. The samples are analysed by flow cytometry using the relative incorporation of PI as a measure of DNA content of each cell. The % Dead cells is recorded as % of events with less than 2N DNA.
(§8) HDF are normal diploid fibroblast cells. RKO are colon adenocarcinoma cells and MES/SA are […].

[2] = tested on: HDF normal diploid fibroblast cells; assay: MTT assay, HDF; format: cell-based, human; details: Homo sapiens, Fibroblast, 72 h, read-out: MTT HDF IC50
Method: Compounds are tested for their ability to inhibit cell proliferation and cell viability. The metabolic conversion of 3-(4,5-dimethylthiazol-2-yl)-2,5-diphenyltetrazolium bromide (MTT, Sigma #M2128) to a reduced form is a commonly used measure of cellular viability. Following is the procedure:
Cells are maintained in 75 cm^2 tissue culture flasks until ready for use. The cells are grown and plated for the assay in Dulbecco's modified Eagle's media (DMEM) containing 10% fetal bovine serum. For example, the following cell lines can be used: a) human foreskin fibroblasts (HFF); b) HT29 (human colon carcinoma cell line); c)MDA-MB-468 (human breast carcinoma cell line); d) RKO (human colon adenocarcinoma cell line); e) SW620 (human colon carcinoma cell line); f) A549 (human lung carcinoma cell line); and g) MIA PACA (human pancreatic carcinoma cell line). Cells are maintained at 37° C. in 10% CO2, 90% humidified air. Cells are plated in 96-well tissue culture plates at the densities listed below. […]
Cells are returned to incubator and allowed to proliferate in the presence of compound for 72 h before addition of MTT. […] Quantitation of metabolic reduction of MTT in each plate is performed by reading optical density at 570 nm wavelength on a Molecular Devices UVmax microplate reader. Growth inhibition curves and 50% inhibitory concentrations are determined using Microsoft Excel. […]

[3] = tested on: HDF normal diploid fibroblast cells; assay: FACS assay (cell death by flow cytometry), HDF; format: cell-based, human; details: Homo sapiens, Fibroblast, 72 h, read-out: FACS HDF IC50
Method: as §1, §2, §3, §4, §5, §6, §7, §8

cSrc = cSrc (Homo sapiens, UniProt P12931); assay: Src peptide phosphorylation assay (Elisa or isotope based); format: biochemical
cSrc, sequence (P12931 whole entry, species assumed): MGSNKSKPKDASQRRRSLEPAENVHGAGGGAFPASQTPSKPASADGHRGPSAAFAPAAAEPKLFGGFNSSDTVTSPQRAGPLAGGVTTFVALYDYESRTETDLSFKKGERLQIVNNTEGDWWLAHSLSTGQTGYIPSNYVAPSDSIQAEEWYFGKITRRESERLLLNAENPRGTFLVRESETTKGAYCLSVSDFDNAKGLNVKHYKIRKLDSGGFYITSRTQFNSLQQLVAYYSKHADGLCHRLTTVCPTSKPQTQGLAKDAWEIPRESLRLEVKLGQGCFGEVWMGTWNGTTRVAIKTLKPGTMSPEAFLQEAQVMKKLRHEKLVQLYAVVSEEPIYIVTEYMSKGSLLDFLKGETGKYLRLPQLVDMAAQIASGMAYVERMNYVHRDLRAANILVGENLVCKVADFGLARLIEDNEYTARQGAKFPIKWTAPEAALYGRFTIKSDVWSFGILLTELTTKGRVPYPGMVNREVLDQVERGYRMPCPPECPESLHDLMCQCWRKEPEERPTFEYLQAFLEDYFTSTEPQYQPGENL
Method: The peptide substrates used in Src and Lck assays were biotin-aminohexyl-EEIYGEF-NH2 (Src) and biotin-aminohexyl-[…]-NH2 (Lck). The src and Ick proteins were purified to homogeneity from a baculovirus expression system and preactivated before adding to assay mixtures. The maximum activation was achieved by incubating concentrated enzyme (10-30 mM) on ice for 40 min in the presence of 1 mM ATP and 10 mM MgCl2 in 100 mM HEPES, pH 7.5. The activated enzyme was diluted to 2 nM into a 50-mL reaction mixture containing 100 mM HEPES, pH 7.5. 5 mM ATP, 10 mM MgCl2, 2 mM peptide, 0.05 mg/mL BSA, and an inhibitor at varying concentrations and with or without 8 mCi/mL [γ-^33P]ATP dependent upon the method of analysis for the extent of reaction. The controls were reactions in the presence (negative controls) or absence (positive controls) of 50 mM EDTA. Reactions were allowed to proceed for 30 min at room temperature and quenched with addition of EDTA to 50 mM in 220 mL. The extent of reactions was analyzed in one of the two ways: an Elisa-based and a radioactive isotope-based. The quenched samples (200 mL) were transferred to a neutravidin coated plate (Perice) and incubated at room temperature for 40 min to allow biotinylated peptide to bind to neutravidin. The unbound peptide and the rest of the solution was washed away using a plate washer. In the Elisa format, a 200 mL HRP-PY20 anti phosphotyrosine antibody conjugate solution was added. After incubation for about 30 min, the plated was washed to remove unbound antibody-HRP conjugate. An Elisa substrate, K-blue (Neogen), was added and the Elisa reaction quenched with Red-stop (Neogen) after 15 min. The plate was read at A625 in a plate reader. In the isotope-based format, the reactions had been performed in the presence of [γ-^33P]ATP. 200 mL Scintiverce DB was added to each well of the plate with bound biotin-peptide. The plate was sealed and counted in a micro-b-counter (Wallac). IC50 values were obtained by fitting raw data to A625 (cpm)=Vmax*(1−([l]/(IC50+[l])))+b, where b is background.

SMILES	IC50 (CDK2)	IC50 ([1]; 50% cell death)	IC50 [1]	IC50 [2]	IC50 [3]	IC50 (cSrc)
CNS(=O)(=O)Cc1ccc(NN=C2C(=O)Nc3ccc4ncccc4c32)cc1 [Example 68, N-Methyl-C-{4-[N′-(2-oxo-2,3-dihydro-pyrrolo[3,2-f]quinolin-1-ylidene)-hydrazino]-phenyl}-methanesulfonamide]	0.001 to 0.01 µM					
CC(C)(CO)CNS(=O)(=O)c1ccc(NC=C2C(=O)Nc3ccc4ncsc4c32)cc1 [Example 77, N-(3-Hydroxy-2,2-dimethyl-propyl)-4-[(7-oxo-6,7-dihydro-1-thia-3,6-diaza-as-indacen-8-ylidenemethyl)-amino]-benzenesulfonamide]		0.6 to 1 µM				
O=C1Nc2ccc3ncsc3c2C1=CNc1ccc(S(=O)(=O)Nc2ccccn2)cc1 [Example 72, 4-[(7-Oxo-6,7-dihydro-1-thia-3,6-diaza-as-indacen-8-ylidenemethyl)-amino]-N-pyridin-2-yl-benzenesulfonamide]			> 5 µM	> 5 µM	> 5 µM	> 0.1 µM
CS(=O)(=O)Cc1ccc(NC=C2C(=O)Nc3ccc4ncsc4c32)cc1 [Example 76, 8-(4-Methylsulfonylmethyl-phenylamino-methylene)-6,8-dihydro-1-thia-3,6-diaza-as-indacen-7-one]	0.011 to 0.05 µM	1.1 to 5 µM				> 0.1 µM
CNS(=O)(=O)Cc1ccc(NN=C2C(=O)Nc3cc(C)c(O)c(C)c32)cc1 [Example 99]		> 5 µM				> 0.1 µM
